According to article PMC4849045, “Hepatoprotective Limonoids from Andiroba (Carapa guianensis)” (International Journal of Molecular Sciences, 2016):
Read-outs that look alike come from different tables or passages of the source.

Legend:
[1] = tested on: LPS-activated NO production in mouse peritoneal macrophages; settings: cited from earlier work; for Inhibition (%) of LPS-activated NO production: mean ± S.E.M. (n = 4); for IC50: mouse peritoneal macrophages, read-out: IC50, inhibition of LPS-activated NO production
[2] = tested on: mouse peritoneal macrophages; settings: mean ± S.E.M. (n = 4), cited from earlier work
[3] = tested on: primary cultured mouse hepatocytes; assay: D-GalN-induced cytotoxicity in primary cultured mouse hepatocytes (MTT assay); settings: Hepatocyte, read-out: Inhibition (%) of D-GalN-induced cytotoxicity
Method: Assay for the D-GalN-induced cytotoxicity in primary cultured mouse hepatocytes was performed as described previously [33, 35, 36].

[4] = tested on: D-GalN/LPS-induced liver injury in mice; assay: D-GalN/LPS-induced liver injury in mice; assay type: in vivo, mouse; settings: p.o.; for Mortality: dead/total; for sALT / sAST: mean ± S.E.M.
Method: Male ddY mice (Kiwa Laboratory Animal Co., Ltd., Wakayama, Japan) were housed at a constant temperature of 23 ± 2°C and were fed a standard laboratory chow (MF, Oriental Yeast Co., Ltd., Tokyo, Japan). The animals were fasted for 24 h prior to the beginning of the experiment but were allowed free access to tap water. All experiments were performed with conscious mice unless otherwise noted. The experimental protocol was approved by the Experimental Animal Research Committee of Kindai University (KAPR-26-001, 1 April 2014).
The method described by Tiegs et al. was modified and used for this study. Curcumin [36] and silybin were used as reference compounds.

L929 cells = assay: TNF-α-induced cytotoxicity in L929 cells (MTT assay); assay type: cell-based; settings: Mus musculus, read-out: Inhibition (%) of TNF-α-induced cytotoxicity
Method: The effects of the limonoids (1–17) on the sensitivity of hepatocytes to TNF-α were assessed by measuring TNF-α-induced decreases in the viability of L929 cells, a TNF-α-sensitive cell line, by using the MTT assay. In the absence of a test sample, the cells incubated with 1 ng/mL TNF-α for 44 h were compared with those not incubated with TNF-α.
Assay for the TNF-α-induced cytotoxicity in L929 cells was performed as described previously. Silybin was used as a reference compound [36].

[5] = 10 µM, # = cytotoxic effects were observed
[6] = 30 µM, # = cytotoxic effects were observed
[7] = 100 µM, # = cytotoxic effects were observed
[8] = L929, 1 µM, 1 ng/mL TNF-α, 44 h, mean ± S.E.M. (n = 4)
[9] = L929, 3 µM, 1 ng/mL TNF-α, 44 h, mean ± S.E.M. (n = 4)
[10] = L929, 10 µM, 1 ng/mL TNF-α, 44 h, mean ± S.E.M. (n = 4)
[11] = L929, 30 µM, 1 ng/mL TNF-α, 44 h, mean ± S.E.M. (n = 4)

## O=C(/C=C/c1ccc(O)c(O)c1)OCCc1ccccc1 [CAPE, caffeic acid phenethyl ester, reference compound]
[1]; 3 µM
  Inhibition (%) of LPS-activated NO production: 5.9 ± 5.2%
[1]; 10 µM
  Inhibition (%) of LPS-activated NO production: 44.4 ± 3.2%
[1]; 30 µM
  Inhibition (%) of LPS-activated NO production: 86.2 ± 1.1%
[1]; 100 µM
  Inhibition (%) of LPS-activated NO production: 99.6 ± 0.1%
[1]
  IC50: 11 µM
[2]; 3 µM
  cell viability (%) in MTT assay (values in parentheses): 95.4 ± 0.7%
[2]; [5]
  cell viability (%) in MTT assay (values in parentheses): 70.0 ± 4.0%
[2]; [6]
  cell viability (%) in MTT assay (values in parentheses): 71.4 ± 6.0%
[2]; [7]
  cell viability (%) in MTT assay (values in parentheses): 53.0 ± 1.4%

## [H]/N=C(/NC)NCCC[C@H](N)C(=O)O [L-NMMA, N^G-monomethyl-L-arginine, reference compound]
[1]; 3 µM
  Inhibition (%) of LPS-activated NO production: 1.4 ± 2.8%
[1]; 10 µM
  Inhibition (%) of LPS-activated NO production: 19.9 ± 2.8%
[1]; 30 µM
  Inhibition (%) of LPS-activated NO production: 43.0 ± 2.1%
[1]; 100 µM
  Inhibition (%) of LPS-activated NO production: 70.9 ± 1.6%
[1]
  IC50: 36 µM
[2]; 3 µM
  cell viability (%) in MTT assay (values in parentheses): 101.1 ± 5.7%
[2]; [5]
  cell viability (%) in MTT assay (values in parentheses): 100.7 ± 6.2%
[2]; [6]
  cell viability (%) in MTT assay (values in parentheses): 102.6 ± 4.2%
[2]; [7]
  cell viability (%) in MTT assay (values in parentheses): 106.4 ± 4.6%

## CC(=O)O[C@@H]1C[C@H]2C(C)(C)C(=O)C=C[C@]2(C)[C@H]2CC[C@@]3(C)[C@H](c4ccoc4)OC(=O)[C@H]4O[C@]43[C@@]21C [compound 1, gedunin]
[3]
  inhibition at 3 µM: -8.4 ± 1.9%
  inhibition at 10 µM: -3.9 ± 0.4%
  inhibition at 30 µM: -3.2 ± 0.9%
  inhibition at 100 µM: -5.2 ± 0.2%
[1]; 3 µM
  Inhibition (%) of LPS-activated NO production: 25.1 ± 2.5%
[1]; 10 µM
  Inhibition (%) of LPS-activated NO production: 84.5 ± 2.3%
[1]; 30 µM
  Inhibition (%) of LPS-activated NO production: 101.8 ± 0.6%
[1]; 100 µM
  Inhibition (%) of LPS-activated NO production: 100.9 ± 0.4%
[1]
  IC50: 4.6 µM
[2]; 3 µM
  cell viability (%) in MTT assay (values in parentheses): 102.2 ± 5.3%
[2]; 10 µM
  cell viability (%) in MTT assay (values in parentheses): 119.5 ± 5.3%
[2]; 30 µM
  cell viability (%) in MTT assay (values in parentheses): 94.8 ± 1.4%
[2]; [7]
  cell viability (%) in MTT assay (values in parentheses): 3.0 ± 0.4%
[4]; 25 mg/kg
  sALT Inhibition (%): 65.7%
  sAST Inhibition (%): 56.2%
  Mortality: 0/7
  sALT: 2950 ± 710 Karmen Unit
  sAST: 2304 ± 651 Karmen Unit
[4]; 50 mg/kg
  sALT Inhibition (%): 67.2%
  sAST Inhibition (%): 63.5%
  Mortality: 0/7
  sALT: 2824 ± 754 Karmen Unit
  sAST: 1923 ± 576 Karmen Unit
L929 cells; [8]
  inhibition at 1 µM: 4.5 ± 1.9%
L929 cells; [9]
  inhibition at 3 µM: 21.8 ± 3.7%
L929 cells; [10]
  inhibition at 10 µM: 38.1 ± 3.8%
L929 cells; [11]
  inhibition at 30 µM: 36.5 ± 4.1%

## CC(=O)O[C@@H]1C2C(C)(C)C(=O)C=C[C@]2(C)C2CC[C@@]3(C)[C@H](c4ccoc4)OC(=O)[C@H]4O[C@]43[C@]2(C)[C@@H]1OC(C)=O (stereo partly drawn) [compound 2, 6α-acetoxygedunin]
[3]
  inhibition at 3 µM: -2.6 ± 1%
  inhibition at 10 µM: -1.9 ± 0.3%
  inhibition at 30 µM: -2.5 ± 0.7%
  inhibition at 100 µM: -1.8 ± 0.6%
[1]; 3 µM
  Inhibition (%) of LPS-activated NO production: 16.9 ± 1.7%
[1]; 10 µM
  Inhibition (%) of LPS-activated NO production: 67.6 ± 4.6%
[1]; 30 µM
  Inhibition (%) of LPS-activated NO production: 88.4 ± 3.5%
[1]; 100 µM
  Inhibition (%) of LPS-activated NO production: 99.6 ± 0.2%
[1]
  IC50: 7.9 µM
[2]; 3 µM
  cell viability (%) in MTT assay (values in parentheses): 96.8 ± 1.2%
[2]; 10 µM
  cell viability (%) in MTT assay (values in parentheses): 102.3 ± 2.2%
[2]; 30 µM
  cell viability (%) in MTT assay (values in parentheses): 92.5 ± 1.7%
[2]; [7]
  cell viability (%) in MTT assay (values in parentheses): 53.6 ± 5.1%
[4]; 25 mg/kg
  sALT Inhibition (%): 63.7%
  sAST Inhibition (%): 54.7%
  Mortality: 0/7
  sALT: 3120 ± 830 Karmen Unit
  sAST: 2384 ± 579 Karmen Unit
[4]; 50 mg/kg
  sALT Inhibition (%): 72.2%
  sAST Inhibition (%): 67.9%
  Mortality: 0/7
  sALT: 2397 ± 873 Karmen Unit
  sAST: 1696 ± 580 Karmen Unit
L929 cells; [8]
  inhibition at 1 µM: 10.9 ± 1%
L929 cells; [9]
  inhibition at 3 µM: 23.2 ± 1.8%
L929 cells; [10]
  inhibition at 10 µM: 36.3 ± 2.1%
L929 cells; [11]
  inhibition at 30 µM: 37.3 ± 1.4%

## CC1(C)C(=O)C=C[C@@]2(C)C1C[C@@H](O)[C@]1(C)C2CC[C@@]2(C)[C@H](c3ccoc3)OC(=O)[C@H]3O[C@]321 (stereo partly drawn) [compound 4, 7-deacetoxy-7α-hydroxygedunin]
[3]
  inhibition at 3 µM: -2 ± 1.4%
  inhibition at 10 µM: -6.3 ± 0.5%
  inhibition at 30 µM: -8 ± 0.4%
  inhibition at 100 µM: -4.1 ± 0.7%
[1]; 3 µM
  Inhibition (%) of LPS-activated NO production: 15.7 ± 4.6%
[1]; 10 µM
  Inhibition (%) of LPS-activated NO production: 55.7 ± 4.0%
[1]; 30 µM
  Inhibition (%) of LPS-activated NO production: 98.8 ± 0.4%
[1]; 100 µM
  Inhibition (%) of LPS-activated NO production: 100.2 ± 0.2%
[1]
  IC50: 8.7 µM
[2]; 3 µM
  cell viability (%) in MTT assay (values in parentheses): 110.3 ± 5.9%
[2]; 10 µM
  cell viability (%) in MTT assay (values in parentheses): 106.6 ± 3.1%
[2]; 30 µM
  cell viability (%) in MTT assay (values in parentheses): 96.3 ± 4.6%
[2]; [7]
  cell viability (%) in MTT assay (values in parentheses): 2.6 ± 0.5%
L929 cells; L929, 44 h
  inhibition at 3 µM: -6.5 ± 2.4%
  inhibition at 10 µM: 2.7 ± 2.3%
  inhibition at 30 µM: 36.5 ± 1.8%

## CC(=O)O[C@@H]1[C@H](O)C2C(C)(C)C(=O)C=C[C@]2(C)C2CC[C@@]3(C)[C@H](c4ccoc4)OC(=O)[C@H]4O[C@]43[C@@]21C (stereo partly drawn) [compound 6, 6α-hydroxygedunin]
[3]
  inhibition at 3 µM: -7.2 ± 2.4%
  inhibition at 10 µM: -9.4 ± 0.8%
  inhibition at 30 µM: -0.1 ± 0.7%
  inhibition at 100 µM: -2.8 ± 0.5%
[1]; 3 µM
  Inhibition (%) of LPS-activated NO production: 7.7 ± 7.1%
[1]; 10 µM
  Inhibition (%) of LPS-activated NO production: 20.7 ± 4.3%
[1]; 30 µM
  Inhibition (%) of LPS-activated NO production: 64.0 ± 3.1%
[1]; 100 µM
  Inhibition (%) of LPS-activated NO production: 97.3 ± 0.3%
[1]
  IC50: 19.1 µM
[2]; 3 µM
  cell viability (%) in MTT assay (values in parentheses): 88.4 ± 3.0%
[2]; 10 µM
  cell viability (%) in MTT assay (values in parentheses): 87.6 ± 4.0%
[2]; 30 µM
  cell viability (%) in MTT assay (values in parentheses): 90.4 ± 2.6%
[2]; [7]
  cell viability (%) in MTT assay (values in parentheses): 82.2 ± 4.2%
L929 cells; [8]
  inhibition at 1 µM: 8.1 ± 1.9%
L929 cells; [9]
  inhibition at 3 µM: 6.7 ± 1.5%
L929 cells; [10]
  inhibition at 10 µM: 12.1 ± 3%
L929 cells; [11]
  inhibition at 30 µM: 28.3 ± 1.7%

## C=C1[C@@H]2CC[C@@]3(C)[C@H](c4ccoc4)OC(=O)C[C@]13O[C@H]1CC(=O)C(C)(C)[C@H](CC(=O)OC)[C@]12C [compound 7, methyl angolensate]
[3]
  inhibition at 3 µM: -2.1 ± 1.2%
  inhibition at 10 µM: -7.5 ± 0.9%
  inhibition at 30 µM: -6.3 ± 0.7%
  inhibition at 100 µM: -6.6 ± 1%
[1]; 3 µM
  Inhibition (%) of LPS-activated NO production: 10.1 ± 4.2%
[1]; 10 µM
  Inhibition (%) of LPS-activated NO production: 20.0 ± 8.1%
[1]; 30 µM
  Inhibition (%) of LPS-activated NO production: 42.2 ± 3.5%
[1]; 100 µM
  Inhibition (%) of LPS-activated NO production: 24.0 ± 4.2%
[1]
  IC50: > 100 µM
[2]; 3 µM
  cell viability (%) in MTT assay (values in parentheses): 108.8 ± 11.0%
[2]; 10 µM
  cell viability (%) in MTT assay (values in parentheses): 108.8 ± 5.5%
[2]; 30 µM
  cell viability (%) in MTT assay (values in parentheses): 111.0 ± 4.5%
[2]; [7]
  cell viability (%) in MTT assay (values in parentheses): 78.1 ± 5.3%
L929 cells; L929, 44 h
  inhibition at 1 µM: -0.5 ± 3.5%
  inhibition at 3 µM: 0.6 ± 2.9%
  inhibition at 10 µM: 13.3 ± 2.6%
  inhibition at 30 µM: 24.6 ± 2.9%
